From ChEMBL document CHEMBL2074080, “Enhanced drug-induced apoptosis associated with P-glycoprotein overexpression is specific to antimicrotubule agents” (Pharm Res, 2003)

What follows are molecules tested against ATP-dependent translocase ABCB1 (Homo sapiens, UniProt P08183) (assay: TP_TRANSPORTER: drug resistance in MDR1-expressing MCF7 cells).
Assay type: functional, cell-based

Sequence of ATP-dependent translocase ABCB1 (P08183 whole entry): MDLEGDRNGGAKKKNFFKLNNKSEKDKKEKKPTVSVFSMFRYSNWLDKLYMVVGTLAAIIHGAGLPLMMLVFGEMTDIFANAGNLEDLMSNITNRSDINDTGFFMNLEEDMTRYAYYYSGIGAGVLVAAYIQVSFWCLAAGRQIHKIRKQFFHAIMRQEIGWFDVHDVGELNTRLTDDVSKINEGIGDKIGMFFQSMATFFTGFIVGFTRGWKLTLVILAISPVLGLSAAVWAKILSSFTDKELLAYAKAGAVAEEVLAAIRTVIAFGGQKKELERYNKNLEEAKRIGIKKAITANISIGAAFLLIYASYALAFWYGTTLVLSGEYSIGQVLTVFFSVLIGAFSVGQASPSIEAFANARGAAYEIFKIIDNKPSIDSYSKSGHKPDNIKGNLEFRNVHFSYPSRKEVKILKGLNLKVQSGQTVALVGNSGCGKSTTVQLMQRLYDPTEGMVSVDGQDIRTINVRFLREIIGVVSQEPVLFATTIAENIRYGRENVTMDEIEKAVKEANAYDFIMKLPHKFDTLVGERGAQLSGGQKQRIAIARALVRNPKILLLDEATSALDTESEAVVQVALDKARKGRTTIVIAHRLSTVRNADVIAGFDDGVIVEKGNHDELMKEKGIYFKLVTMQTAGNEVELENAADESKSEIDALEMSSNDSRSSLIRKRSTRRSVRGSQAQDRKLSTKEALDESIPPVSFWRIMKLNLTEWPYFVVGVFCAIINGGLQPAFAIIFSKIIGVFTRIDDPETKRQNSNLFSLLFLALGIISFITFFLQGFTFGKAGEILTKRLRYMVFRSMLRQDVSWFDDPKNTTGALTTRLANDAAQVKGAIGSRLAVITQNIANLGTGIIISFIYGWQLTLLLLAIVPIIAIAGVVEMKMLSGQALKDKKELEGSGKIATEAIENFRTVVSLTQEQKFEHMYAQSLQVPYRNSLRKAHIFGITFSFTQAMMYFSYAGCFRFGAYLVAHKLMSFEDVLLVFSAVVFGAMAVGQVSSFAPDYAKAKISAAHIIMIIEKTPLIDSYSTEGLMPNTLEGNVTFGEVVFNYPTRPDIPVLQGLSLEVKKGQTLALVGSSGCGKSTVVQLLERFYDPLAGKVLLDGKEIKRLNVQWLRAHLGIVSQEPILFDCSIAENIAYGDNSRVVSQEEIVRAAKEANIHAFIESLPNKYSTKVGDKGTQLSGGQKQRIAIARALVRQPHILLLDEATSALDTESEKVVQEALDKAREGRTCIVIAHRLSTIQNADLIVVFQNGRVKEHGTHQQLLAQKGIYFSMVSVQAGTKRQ

Row | Molecule | Activity
1 | O=c1[nH]c(=O)n([C@@H]2O[C@H](CO)[C@@H](O)[C@H]2O)cc1F [5-FLUOROURIDINE] | is not a substrate [-]
2 | CC[C@@]1(O)C(=O)OCc2c1cc1n(c2=O)Cc2cc3ccccc3nc2-1 [CAMPTOTHECIN] | is not a substrate [-]
3 | COc1cccc2c1C(=O)c1c(O)c3c(c(O)c1C2=O)C[C@@](O)(C(=O)CO)C[C@@H]3O[C@H]1C[C@H](N)[C@H](O)[C@H](C)O1 [DOXORUBICIN] | substrate [+]
4 | CC(=O)O[C@H]1C(=O)[C@@]2(C)[C@H]([C@H](OC(=O)c3ccccc3)[C@]3(O)C[C@H](OC(=O)[C@H](O)[C@@H](NC(=O)c4ccccc4)c4ccccc4)C(C)=C1C3(C)C)[C@]1(OC(C)=O)CO[C@@H]1C[C@@H]2O [PACLITAXEL] | substrate [+]
5 | CC[C@]1(O)C[C@H]2CN(CCc3c([nH]c4ccccc34)[C@@](C(=O)OC)(c3cc4c(cc3OC)N(C=O)[C@H]3[C@@](O)(C(=O)OC)[C@H](OC(C)=O)[C@]5(CC)C=CCN6CC[C@]43[C@@H]65)C2)C1 [VINCRISTINE] | substrate [+]
6 | CISPLATIN | is not a substrate [-]
